According to patent publication EP0656952B1, “CATIONIC PEPTIDES AND METHOD FOR PRODUCTION” (THE UNIVERSITY OF BRITISH COLUMBIA, priority 1992, dated 1994):

Columns and labels:
[1] = test system: a number of different bacteria; test: Minimum inhibitory concentration (MIC), broth dilution; assay type: cell-based; details: MIC comparison
Method: (§1) The minimum inhibitory concentrations of (MIC) of CEME, CEMA and melittin were determined for a number of different bacteria (Table 2). Briefly, cells were grown overnight at 37°C in LB-S (Luria broth without any salt supplement) and diluted one in 10,000 in the same medium to give concentrations of about 10^4 to 10^5 CFU/ml. The broth dilutions were set up in a 96 well microtiter plate by putting 200µl of LB-S containing the initial concentration of antibiotic or compound in column 1 and 100 µl of the same medium in columns 2-12. The compounds were diluted by taking 100 µl of broth from column 1 and mixing it with column 2, resulting in a one in two dilution. This was continued to column 10. Finally, 10 µl of bacteria were pipetted into columns 1-11, and the plates incubated overnight at 37°C. The next day the plates were scored for growth in the wells, and the MIC determined.

[2] = test system: S. typhimurium defensin sensitive strain (C590); test: as above; assay type: cell-based; details: MIC comparison with parent strain
Method: as §1

P. aeruginosa = test: 1-N-phenylnaphthylamine (NPN) uptake assay; assay type: cell-based; details: 10 µM NPN, FIGURE 7
Excerpt: (§2) The second assay determined membrane permeability by the ability of 1-N-phenylnaphthylamine (NPN), a small fluorescent probe, to insert itself into the membrane. Normally, very little NPN can penetrate the outer membrane, but in the presence of a membrane permeabilizer it can insert into the hydrophobic membrane resulting in an increase in fluorescence (FIGURES 7 and 8). This N-phenylnaphthylamine uptake assay was previously described by Loh, et al., Antimicrobial Agents and Chemo., 26:546, 1984. Cells were prepared exactly the same as for the lysozyme lysis assay. 1-N-phenylnaphthylamine (NPN) was dissolved in acetone at a concentration of 500 µM. NPN fluorescence was measured in a Perkin-Elmer 650-10S fluorescent spectrophotometer using excitation and emission wavelengths set to 350 nm and 420 nm respectively, with slit widths of 5 nm. The assay was standardized by adding 20 µl of NPN (final concentration of 10 µM) and 10µl of 0.64 mg/ml of polymyxin B (final concentration of 6.4 µg/ml) into 1 ml of cells, and adjusting the resulting fluorescence to read 90% deflection (90 arbitrary units). Various compounds were tested by adding 10 µl of different concentrations to a cuvette containing 1 ml of cells and 10 µM NPN. Permeabilizing activity was designated as the total fluorescence minus the fluorescence due to NPN alone. Following the fluorescence measurement, the OD600 of the cells was taken to ensure no significant cell lysis had occurred.

P. aeruginosa H309 = test: Lysozyme lysis assay (membrane permeabilization); assay type: cell-based; details: P. aeruginosa data only
Method: Membrane permeabilization by polycationic compounds was measured in two different assays. The first assay measured membrane disruption by the ability of lysozyme to reach the periplasm and cause cell lysis. […] The uptake of tysozyme into whole cells due to membrane permeabilization by various compounds was previously described in Hancock, et al., Antimicrobial Agents and Chemo., 19:777; 1981. Overnight cultures of P. aeruginosa H309 or E. cloacae 218R1 grown in LB-S were diluted 1 in 50 in fresh medium and grown to an OD600 ≈ 0.5-0.6. The cells were harvested in a Silencer H-103N clinical centrifuge at 1800 g for 10 min, washed once with one volume of assay buffer (5 mM HEPES pH 7.2, 5 mM KCN), and resuspended in the same buffer to an OD600 of 0.5. Assays consisted of 600 µl of cells with 50 µg/ml of chicken egg white lysozyme and varying concentrations of cationic compounds. Cell lysis was measured as a decrease in the OD600 in a Perkin-Emmer dual beam spectrophotometer. Parallel experiments performed without lysozyme enabled the measurement of the lytic activity of the compounds themselves. To test whether or not permeability to lysozyme could be inhibited by divalent cations, various concentrations of MgCl2 were added to the assay after the addition of lysozyme and before the addition of the test compound.

[3] = Synergy: MIC of antibiotics in the presence of sub-MIC levels of cationic peptides; assay type: cell-based
Method: as §1
The ability of the cationic peptides to work synergystically was examined by determining the MIC values for some commonly used antibiotics in the presence of sub-MIC levels of cationic peptides (Table 4). […] This may be due to the high membrane permeabilizing activity of CEMA (see below). However, the peptides did lower the MIC of polymyxin B, possibly due to the fact that they are all taken up by the same pathway and are therefore aiding each other's uptake. […]

P. aeruginosa LPS = test: Dansyl polymyxin (DPx) displacement assay with purified LPS; assay type: binding; details: on a µM basis, compared with polymyxin B
Method: DPx is a derivative of polymyxin that fluoresces strongly when bound to LPS, but weakly when free in solution. In this assay, DPx was incubated with LPS to saturate the binding sites and then, while polycationic compounds are titrated into the reaction, displacement of the DPx was monitored by the decrease in fluorescence (FIGURE 9). P. aeruginosa LPS was isolated as previously described (Darveau, et al., J. of Bacteriology, 155:831, 1983) Dansyl polymyxin was synthesized as described by Schindler, et al., B. Antimicrobial Agents and Chemo, 8:95, 1975.
Briefly, 40 mgs of polymyxin B and 10 mgs of dansyl chloride were mixed in 2 mls of 60 mM NaHC03 and 40% acetone and incubated in the dark for 90 minutes. […] The dansyl polymyxin was resuspended in 5 mM Hepes pH 7.0, quantitated by dinitrophenylation and stored in aliquots at -20°C.
The method of Moore, et al., (Antimicrobial Agents end Chemo., 29:496, 1987), was used to test how much DPx was needed to saturate the binding sties on LPS. Briefly, 5 µl samples of 100 µM DPx were titrated sequentially into 1ml of 3 µg/ml of LPS until a maximum fluorescence was reached. The fluorescence was measured in a Perkin-Elmer 650-10S fluorescence spectrophotometer with an excitation wavelength of 340 nm and an emission wavelength of 485 nm using slit widths of 5 nm. […]

E. coli strain DC2 = test: Acid-urea gel overlay antibacterial activity test; assay type: cell-based; details: acid-urea gel overlaid with agar containing ≈ 10^5 E. coli strain DC2, overnight at 37°C
Method: A sample of the partially purified CEME protein was electrophoresed on a 15% acid-urea gel, which separates proteins based on charge and mass (Panyim and Chalkey, Arch. Biochem. Biophys., 130:337, 1969). The pH of the buffer is acidic (≈ pH 5.0) and the polarity is reversed such that proteins migrate to the cathode. Therefore, the small cationic peptides run relatively quickly through the gel and thus can be easily identified. Antibacterial activity was tested as previously described (Hultmark, Eur. J. Biochem., 106:7, 1980). The gel was incubated in Mueller Hinton broth + 0.2M NaPO4 pH 7.4 for 1 hr. It was overlaid with 5 mls of the same media containing 0.6% agar and ≈ 10^5 E. coli strain DC2, and then again with 5 ml of the same media containing only 0.6% agar. […] Melittin is used as a positive control due to its antibacterial activity and similarity in size and PI values.

E. cloacae = test: 1-N-phenylnaphthylamine (NPN) uptake assay; assay type: cell-based; details: 10 µM NPN, FIGURE 8
Excerpt: as §2

Row | Compound | resistance of the mutant SC9252 [1] | sensitivity of the S. typhimurium defensin sensitive strain (C590) [2] | opening up the membrane to NPN (P. aeruginosa) | permeabilizer for lysozyme relative to gentamicin (P. aeruginosa H309; lysis without lysozyme taken into consideration) | cell lysis in the absence of lysozyme (P. aeruginosa H309; increased concentrations of peptide) | effect on the MIC of polymyxin B [3] | affinity for LPS (I50) (P. aeruginosa LPS) | zones of clearing at the migration site (E. coli strain DC2) | opening up the membrane to NPN (E. cloacae)
1 | CC(C)(O/N=C(\C(=O)N[C@@H]1C(=O)N2C(C(=O)[O-])=C(C[n+]3ccccc3)CS[C@H]12)c1csc(N)n1)C(=O)O [ceftazidime] | increased resistance | unchanged |  |  |  |  |  |  | 
2 | gentamicin |  | two-fold more sensitive |  |  |  |  |  |  | 
3 | melittin |  | two-fold more sensitive | less active | 5- to 10 fold | cell lysis in the absence of lysozyme occurred | lower than those in the presence of CEME and CEMA | slightly lower affinities | zones of clearing | 
4 | polymyxin B | increased resistance | four-fold more sensitive | equally active |  |  |  |  |  | equally active
